Laboratory results taken from US10285994B2, “Method of preventing or treating osteoporosis by neddylation inhibitor” (Chang Gung University, priority 2017, dated 2019).

Columns and labels:
[1] = test system: RAW264.7 cells; assay: Osteoclast formation from RAW264.7 cells, TRAP staining; format: cell-based, mouse; details: sRANKL-activated RAW264.7 cells, 7 days, FIG. 2A
Experimental: FIGS. 2A-2D are data collected from RAW264.7 cells respectively incubated in the medium containing sRANKL (50 ng/ml) and specified concentrations of MLN4924 for 7 days according to example 1.2 of the present disclosure. FIG. 2A: the photographs of TRAP staining depicting the differentiation of osteoclasts from RAW264.7 cells. FIG. 2B: after the differentiation of osteoclasts in Corning Osteo Surface, the cells were removed, and the resorbed areas for confirming osteoclast activity were analyzed by 1% toluidine blue staining. FIG. 2C: the culture medium is subject to Biovision Cathepsin K Activity Fluorometric Assay Kit for the analysis of cathepsin K activity. FIG. 2D: the effect of effective doses of MLN4924 on the viability of RAW264.7 cells is evaluated by MTT assay. Scale bar represents 100 μm. Data are expressed as mean±SD where *p<0.05.
RAW264.7 cells (murine monocytic/macrophage cell line) were cultured in Dulbecco's modified Eagle's medium high glucose (DMEM)(Gibco BRL, Gaithersburg, Md.) containing 10% fetal bovine serum (Gibco) and 1× GlutaMax (Gibco).
For in vitro osteoclast formation, the pre-osteoclasts and RAW264.7 cells were cultured in the medium containing 50 ng/ml sRANKL […] specified concentrations of MLN4924 for seven days. […]

[2] = test system: ovariectomized (OVX) mice; assay: Serum CTX-1 ELISA in OVX + sRANKL mice; format: in vivo, mouse; details: 10 mg/kg i.p. once daily for 2 weeks, FIG. 6E
Experimental: FIGS. 6A-6E are the data depicting the mouse model of ovariectomy-induced osteoporosis, in which the ovariectomized (OVX) mice are respectively treated with sRANKL (1 mg/Kg) in the absence or presence of MLN4924 (10 mg/Kg) according to example 5.1 of the present disclosure. FIG. 6A: Micro computed-tomography (micro-CT) three-dimensional images of the distal femurs of mice respectively treated with the indicated treatments, in which the left panels represent transaxial plane, and the right panels represent coronal plane. FIGS. 6B-6D: micro-CT measurement of trabecular bone parameters, including bone volume/total volume (FIG. 6B), trabecular number (FIG. 6C), and trabecular space (FIG. 6D). […] Values are expressed as mean±SD, N=6 per group. *p<0.05; **p<0.01.
All experimental procedures were approved by the Institutional Animal Care and Use Committee of the Chang Gung Memorial Hospital at Chiayi and complied with the Guideline for the Care and Use of Laboratory Animals available through the National Academy of Sciences (IACUC number: 2013100102 and 2015103001). […] Serum levels of cross linked C-telopeptide of type I collagen (CTX-1) (CEA665Mu) was measured by specific ELISA kit (USCN life science incorporation, Wuhan, Hubei, China).
Since CTX-1 serve as the biomarker for bone resorption, the level of CTX-1 in the serum of mice receiving specified treatments were then determined.

[3] = test system: ovariectomized (OVX) mice; assay: Ovariectomy + sRANKL osteoporosis mouse model, micro-CT of distal femur; format: in vivo; details: 10 mg/kg i.p. once daily for 2 weeks
Experimental: FIGS. 6A-6E are the data depicting the mouse model of ovariectomy-induced osteoporosis, in which the ovariectomized (OVX) mice are respectively treated with sRANKL (1 mg/Kg) in the absence or presence of MLN4924 (10 mg/Kg) according to example 5.1 of the present disclosure. FIG. 6A: Micro computed-tomography (micro-CT) three-dimensional images of the distal femurs of mice respectively treated with the indicated treatments, in which the left panels represent transaxial plane, and the right panels represent coronal plane. FIGS. 6B-6D: micro-CT measurement of trabecular bone parameters, including bone volume/total volume (FIG. 6B), trabecular number (FIG. 6C), and trabecular space (FIG. 6D). FIG. 6E: Serum level of C-telopeptide of type 1 collagen (CTX-1) in control, OVX, OVX+sRANKL, and OVX+sRANKL+MLN4924 groups. Values are expressed as mean±SD, N=6 per group. *p<0.05; **p<0.01.
All experimental procedures were approved by the Institutional Animal Care and Use Committee of the Chang Gung Memorial Hospital at Chiayi and complied with the Guideline for the Care and Use of Laboratory Animals available through the National Academy of Sciences (IACUC number: 2013100102 and 2015103001). All efforts were made to minimize the suffering of the animals. C57BL/6J female mice (6-8 weeks old; obtained from BioLasco in Taiwan) were operated ovariectomy surgery (OVX). 48 hours later of OVX operation, sRANKL (1 mg/kg) or saline was injected intraperitoneally once daily for two days followed by intraperitoneal injection of MLN4924 (10 mg/kg) once daily for 2 weeks. Mice were sacrificed with CO2 asphyxiation, and the tibias and femurs were isolated therefrom. The tibias were subject to histochemistry assay, and the femurs were subject to bending test and tomographic analysis by MTS (Testresources, Shakopee, Minn.) and Skyscan 1272 (Bruker, Kontich, Belgium), respectively. Serum levels of cross linked C-telopeptide of type I collagen (CTX-1) (CEA665Mu) was measured by specific ELISA kit (USCN life science incorporation, Wuhan, Hubei, China).
The mice were first treated with specified treatments before subjecting to micro-computed tomography (pCT).
The effect of MLN4924 on trabecular bone parameters, including the bone volume/total tissue volume, trabecular number, and trabecular space in bone loss mice were then investigated, and results are presented in FIGS. 6B to 6D.

[4] = test system: cathepsin K; assay: Cathepsin K activity fluorometric assay, BMMs; format: cell-based, mouse; details: FIG. 1C
Experimental: FIGS. 1A-1D are data collected from primary mouse bone marrow-derived macrophages (BMMs) respectively incubated in the medium containing the soluble recombinant RANKL (sRANKL, 50 ng/ml), macrophage colony-stimulating factor (M-CSF, 40 ng/ml) and specified concentrations of MLN4924 for 7 days according to example 1.1 of the present disclosure. FIG. 1A: the photographs of TRAP staining depicting the differentiation of osteoclasts from BMMs. FIG. 1B: after the differentiation of osteoclasts in Corning Osteo Surface (a synthetic 3-dimensional structure that mimics in vivo bone for in vitro bone cell assays), the cells were removed, and the resorbed areas for confirming osteoclast activity were analyzed by 1% toluidine blue staining. FIG. 1C: the culture medium is subject to Biovision Cathepsin K Activity Fluorometric Assay Kit for the analysis of cathepsin K activity. FIG. 1D: the effect of effective doses of MLN4924 on the viability of BMMs is evaluated by MTT assay. Scale bar represents 100 μm. Data are expressed as mean±SD where *p<0.05; **p<0.01.
The pre-osteoclasts and RAW264.7 cells were seeded into Corning Osteo Surface Assay 96-wells plate (Corning, Kennebunk, Me.). Twenty-four hours later, the cells were treated with sRANKL (50 ng/ml) and specified concentrations of MLN4924 for 7 days. […]

NS(=O)(=O)OC[C@@H]1C[C@@H](n2ccc3c(N[C@H]4CCc5ccccc54)ncnc32)C[C@@H]1O [MLN4924, (1S,2S,4R)-4-(4-((1S)-2,3-Dihydro-1H-inden-1-ylamino)-7H-pyrrolo(2,3-d)pyrimidin-7-yl)-2-hydroxycyclopentyl) methyl sulphamate]
differentiation of osteoclasts (TRAP staining) [1]: significantly inhibited | serum CTX-1 level [2]: significantly rescued the OVX+sRANKL-stimulated serum CTX-1 level upregulation | trabecular bone loss at distal femoral metaphysis (micro-CT images) ([3]; FIG. 6A): could rescue the trabecular bone loss caused by OVX+sRANKL treatment | bone volume/total tissue volume ([3]; vs OVX+sRANKL group, FIG. 6B): significantly rescued the sRANKL-mediated trabecular bone loss | trabecular number ([3]; vs OVX+sRANKL group, FIG. 6C): significantly rescued the sRANKL-mediated trabecular bone loss | trabecular space ([3]; vs OVX+sRANKL group, FIG. 6D): significantly rescued the sRANKL-mediated trabecular bone loss | basal activity of cathepsin K ([4]; MLN4924 alone without sRANKL): did not affect the basal activity of cathepsin K in macrophages | activity of cathepsin K versus sRANKL group ([4]; with sRANKL): significantly reduced the activity of cathepsin K
